Data from publication PMC6931042 (Bioorganic chemistry, 2018).
Like-named read-outs stand apart in the source and are kept apart here.

Experiments:
[1] = test system: human lung adenocarcinoma A549; test: Trypan blue exclusion cytotoxicity assay
[2] = test system: chronic myeloid leukemia K-562; test: Trypan blue exclusion cytotoxicity assay
[3] = Homo sapiens, A549, 24 h, read-out: A549 (IC50 μM), trypan blue exclusion, mean ± SD
[4] = Homo sapiens, K562, 24 h, read-out: K-562 (IC50 μM), trypan blue exclusion, mean ± SD
[5] = read-out: A549 (IC50 μM), trypan blue exclusion, 24 h, mean ± SD
[6] = read-out: K-562 (IC50 μM), trypan blue exclusion, 24 h, mean ± SD

For `COc1ccc2nc(-c3ccc(Cl)cc3)cc(C(=O)NN=C(/C=C\c3ccc(OC)c(OC)c3)c3ccc(N)cc3)c2c1` [Compound 9s, N’-((Z)-1-(4-Aminophenyl)-3-(3,4-dimethoxyphenyl)allylidene)-2-(4-chlorophenyl)-6-methoxyquinoline-4-carbohydrazide], the IC50 [1, 3] was greater than 100 µM and the IC50 [2, 4] was greater than 100 µM.

`COc1ccc(-c2cc(C(=O)NN=C(/C=C\c3ccc(Cl)cc3)c3ccc(N)cc3)c3cc(OC)ccc3n2)cc1` [Compound 9l, N’-((Z)-1-(4-Aminophenyl)-3-(4-chlorophenyl)allylidene)-2-(4-methoxyphenyl)-6-methoxyquinoline-4-carbohydrazide] showed an IC50 [1, 3] greater than 100 µM and an IC50 [2, 4] of 5.17 ± 0.18 µM.

For `COc1ccc2nc(-c3ccc(Cl)cc3)cc(C(=O)NN=C(/C=C\c3ccccc3)c3ccc(N)cc3)c2c1` [Compound 9e, N’-((Z)-1-(4-Aminophenyl)-3-phenylallylidene)-2-(4-chlorophenyl)-6-methoxyquinoline-4-carbohydrazide], the IC50 [1, 3] was 19.2 ± 1.85 µM and the IC50 [2, 4] was 5.09 ± 0.19 µM.

`COc1ccc2nc(-c3ccc(Cl)cc3)cc(C(=O)NN=C(/C=C\c3ccc(Cl)cc3)c3ccc(N)cc3)c2c1` [Compound 9k, N’-((Z)-1-(4-Aminophenyl)-3-(4-chlorophenyl)allylidene)-2-(4-chlorophenyl)-6-methoxyquinoline-4-carbohydrazide] was tested, and the IC50 [1, 3] was greater than 100 µM and the IC50 [2, 4] was 15.2 ± 1.49 µM.

`COc1ccc(-c2cc(C(=O)NN=C(/C=C\c3ccc(OC)c(OC)c3)c3ccc(N)cc3)c3cc(OC)ccc3n2)cc1` [Compound 9t, N’-((Z)-1-(4-Aminophenyl)-3-(3,4-dimethoxyphenyl)allylidene)-2-(4-methoxyphenyl)-6-methoxyquinoline-4-carbohydrazide] showed an IC50 [1, 3] of 31.6 ± 2.02 µM and an IC50 [2, 4] of 23.1 ± 2.15 µM.

`N.N.[Cl][Pt][Cl]` [Cisplatin, reference compound] gave an IC50 [1, 5] of 15.3 ± 1.87 µM and an IC50 [2, 6] of 2.71 ± 0.34 µM.

Work on `COc1ccc(-c2cc(C(=O)NN=C(/C=C\c3ccccc3)c3ccc(N)cc3)c3cc(OC)ccc3n2)cc1` [Compound 9f, N’-((Z)-1-(4-Aminophenyl)-3-phenylallylidene)-2-(4-methoxyphenyl)-6-methoxyquinoline-4-carbohydrazide] yielded an IC50 [1, 3] of 91 µM, an IC50 [1, 5] of 91.4 ± 4.54 µM and an IC50 [2, 4] of 81 µM. It also gave an IC50 [2, 6] of 81.2 ± 3.14 µM.

Compound `Cc1ccc(-c2cc(C(=O)NN=C(/C=C\c3ccccc3)c3ccc(N)cc3)c3ccccc3n2)cc1` [Compound 9d, N’-((Z)-1-(4-Aminophenyl)-3-phenylallylidene)-2-(4-methylphenyl)quinoline-4-carbohydrazide] has an IC50 [1, 3] of 11 µM, an IC50 [1, 5] of 11.2 ± 0.52 µM and an IC50 [2, 4] of 6.98 ± 0.92 µM.

Compound `COc1ccc(/C=C\C(=NNC(=O)c2cc(-c3ccc(OC)cc3)nc3ccccc23)c2ccc(N)cc2)cc1` [Compound 9o, N’-((Z)-1-(4-Aminophenyl)-3-(4-methoxyphenyl)allylidene)-2-(4-methoxyphenyl)quinoline-4-carbohydrazide] has an IC50 [1, 3] of 46.5 ± 2.21 µM and an IC50 [2, 4] of 10.9 ± 0.74 µM.

`Nc1ccc(C(/C=C\c2ccccc2)=NNC(=O)c2cc(-c3ccccc3)nc3ccccc23)cc1` [Compound 9a, N’-((Z)-1-(4-Aminophenyl)-3-phenylallylidene)-2-phenylquinoline-4-carbohydrazide] was tested, and the IC50 [1, 3] was greater than 100 µM, the IC50 [2, 4] was 83 µM and the IC50 [2, 6] was 82.8 ± 3.24 µM.

`COc1ccc(-c2cc(C(=O)NN=C(/C=C\c3ccccc3)c3ccc(N)cc3)c3ccccc3n2)cc1` [Compound 9c, N’-((Z)-1-(4-Aminophenyl)-3-phenylallylidene)-2-(4-methoxyphenyl)quinoline-4-carbohydrazide] gave an IC50 [1, 3] of 16.4 ± 1.3 µM and an IC50 [2, 4] of 5.37 ± 0.31 µM.

In the case of `COc1ccc(/C=C\C(=NNC(=O)c2cc(-c3ccc(Cl)cc3)nc3ccccc23)c2ccc(N)cc2)cc1` [Compound 9n, N’-((Z)-1-(4-Aminophenyl)-3-(4-methoxyphenyl)allylidene)-2-(4-chlorophenyl)quinoline-4-carbohydrazide], the IC50 [1, 3] is reported as 48.3 ± 1.69 µM and the IC50 [2, 4] is reported as 14.4 ± 0.94 µM.

`O=c1cc(N2CCOCC2)oc2c(-c3ccccc3)cccc12` [LY294002, reference compound] gave an IC50 [1, 3] of 3.52 µM and an IC50 [2, 4] of 2.68 µM.

For `Nc1ccc(C(/C=C\c2ccc(Cl)cc2)=NNC(=O)c2cc(-c3ccccc3)nc3ccccc23)cc1` [Compound 9g, N’-((Z)-1-(4-Aminophenyl)-3-(4-chlorophenyl)allylidene)-2-phenylquinoline-4-carbohydrazide], the IC50 [1, 3] was 18.5 µM, the IC50 [1, 5] was 18.5 ± 0.52 µM and the IC50 [2, 4] was 15.2 µM. It also gave an IC50 [2, 6] of 15.2 ± 2.15 µM.

Work on `Nc1ccc(C(/C=C\c2ccccc2)=NNC(=O)c2cc(-c3ccc(Cl)cc3)nc3ccccc23)cc1` [Compound 9b, N’-((Z)-1-(4-Aminophenyl)-3-phenylallylidene)-2-(4-chlorophenyl)quinoline-4-carbohydrazide] yielded an IC50 [1, 3] of 17.6 ± 2.5 µM and an IC50 [2, 4] of 8.96 ± 1.06 µM.

With `Nc1ccc(C(/C=C\c2ccc(Cl)cc2)=NNC(=O)c2cc(-c3ccc(Cl)cc3)nc3ccccc23)cc1` [Compound 9h, N’-((Z)-1-(4-Aminophenyl)-3-(4-chlorophenyl)allylidene)-2-(4-chlorophenyl)quinoline-4-carbohydrazide] the IC50 [1, 3] was 9 µM, the IC50 [1, 5] was 9.46 ± 0.63 µM and the IC50 [2, 4] was 4.28 ± 0.34 µM.

`COc1ccc(/C=C\C(=NNC(=O)c2cc(-c3ccc(Cl)cc3)nc3ccc(OC)cc23)c2ccc(N)cc2)cc1` [Compound 9q, N’-((Z)-1-(4-Aminophenyl)-3-(4-methoxyphenyl)allylidene)-2-(4-chlorophenyl)-6-methoxyquinoline-4-carbohydrazide] gave an IC50 [1, 3] of 97.2 ± 2.36 µM and an IC50 [2, 4] of 68.1 ± 2.87 µM.

With `COc1ccc(/C=C\C(=NNC(=O)c2cc(-c3ccc(OC)cc3)nc3ccc(OC)cc23)c2ccc(N)cc2)cc1` [Compound 9r, N’-((Z)-1-(4-Aminophenyl)-3-(4-methoxyphenyl)allylidene)-2-(4-methoxyphenyl)-6-methoxyquinoline-4-carbohydrazide] the IC50 [1, 3] was 67.4 ± 2.29 µM and the IC50 [2, 4] was 4.45 ± 0.64 µM.

Compound `COc1ccc(/C=C\C(=NNC(=O)c2cc(-c3ccccc3)nc3ccccc23)c2ccc(N)cc2)cc1` [Compound 9m, N’-((Z)-1-(4-Aminophenyl)-3-(4-methoxyphenyl)allylidene)-2-phenylquinoline-4-carbohydrazide] has an IC50 [1, 3] greater than 100 µM and an IC50 [2, 4] of 60.7 ± 2.67 µM.

For `COc1ccc(/C=C\C(=NNC(=O)c2cc(-c3ccc(C)cc3)nc3ccccc23)c2ccc(N)cc2)cc1` [Compound 9p, N’-((Z)-1-(4-Aminophenyl)-3-(4-methoxyphenyl)allylidene)-2-(4-methylphenyl)quinoline-4-carbohydrazide], the IC50 [1, 3] was 33.9 ± 2.15 µM and the IC50 [2, 4] was 18 ± 0.97 µM.
